Patent US11066414B2, “Cot modulators and methods of use thereof” (Gilead Sciences, Inc., priority 2015, dated 2021)
Like-named read-outs stand apart in the source and are kept apart here.

Legend:
TNFα = experiment: Cot Monocyte TNFα Cell Based Assay
Human Cot = Human Cot (Homo sapiens (Human), UniProt P41279); experiment: High Throughput Cot Biochemical Assay
[1] = read-out: EC50 TNF, LPS-stimulated human monocytes, TNFα TR-FRET
[2] = read-out: IC50 HTRF, Cot HTRF (TR-FRET KinEASE) biochemical assay, 400 μM ATP
[3] = Homo sapiens, Monocyte, read-out: EC50 TNF, LPS-stimulated human monocytes, TNFα TR-FRET
[4] = IC50 HTRF, Cot HTRF (TR-FRET KinEASE) biochemical assay, 400 μM ATP
[5] = Homo sapiens, Monocyte, read-out: EC50 TNF, LPS-stimulated human monocytes, TNFα
[6] = IC50 HTRF, Cot HTRF (TR-FRET) biochemical assay

Chain of Human Cot (P41279 30-397): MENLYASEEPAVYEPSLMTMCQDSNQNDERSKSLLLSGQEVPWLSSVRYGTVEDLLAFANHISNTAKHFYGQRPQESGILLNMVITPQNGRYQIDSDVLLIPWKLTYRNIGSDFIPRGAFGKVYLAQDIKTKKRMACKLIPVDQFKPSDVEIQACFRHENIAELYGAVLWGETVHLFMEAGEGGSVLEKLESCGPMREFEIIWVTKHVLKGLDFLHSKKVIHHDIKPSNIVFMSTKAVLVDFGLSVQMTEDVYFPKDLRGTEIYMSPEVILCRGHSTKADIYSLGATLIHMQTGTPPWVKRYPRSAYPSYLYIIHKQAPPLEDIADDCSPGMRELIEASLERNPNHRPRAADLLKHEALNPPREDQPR

Molecule | EC50 (TNFα; [5]) | IC50 (Human Cot; [6]) | other results
COc1nccc2c([C@H](Nc3cc(C#N)c4ncc(C#N)c(NCC(C)(C)C)c4c3)c3cn(C4(C(F)F)CC4)nn3)cccc12 [Example 810, (S)-6-(((1-(1-(difluoromethyl)-cyclopropyl)-1H-1,2,3-triazol-4-yl)(1-methoxylsoquinolin-5-yl)methyl)amino)-4-(neopentylamino)quinoline-3,8-dicarbonitrile] | – | – | EC50 (TNFα; [1]): 54 nM; IC50 (Human Cot; [2]): 4 nM
Cc1nc(F)ccc1[C@H](Nc1cc(Cl)c2ncc(C#N)c(NCC(C)(C)C(F)(F)F)c2c1)c1nnn(C2(C)CC2)c1F [Example 959, (S)-8-chloro-6-(((5-fluoro-1-(1-methylcyclopropyl)-1H-1,2,3-triazol-4-yl)(6-fluoro-2-methylpyridin-3-yl)methyl)amino)-4-((3,3,3-trifluoro-2,2-dimethylpropyl)amino)quinoline-3-carbonitrile] | – | – | EC50 (TNFα; [3]): 41 nM; IC50 (Human Cot; [4]): 3 nM
Cc1nc(F)ccc1[C@H](Nc1cc(C#N)c2ncc(C#N)c(NCC3C(C)(C)C3(C)C)c2c1)c1cn(C2(C(F)F)CC2)nn1 [Example 845, (S)-6-(((1-(1-(difluoromethyl)-cyclopropyl)-1H-1,2,3-triazol-4-yl)(6-fluoro-2-methylpyridin-3-yl)methyl)amino)-4-(((2,2,3,3-tetramethylcyclopropyl)methyl)-amino)quinoline-3,8-dicarbonitrile] | – | – | EC50 (TNFα; [3]): 1000 nM; IC50 (Human Cot; [4]): 20 nM
Cc1nc(F)ccc1[C@H](Nc1cc(F)c2ncc(C#N)c(NCC(C)(C)C)c2c1)c1cn(C2(C(N)=O)CCC2)nn1 [Example 487, (S)-1-(4-(((3-cyano-8-fluoro-4-(neopentyl-amino)quinolin-6-yl)amino)(6-fluoro-2-methylpyridin-3-yl)methyl)-1H-1,2,3-triazol-1-yl)cyclobutane-1-carboxamide] | 245 nM | 1 nM | –
Cc1nc(F)ccc1[C@H](Nc1cc(Cl)c2ncc(C#N)c(NCC(C)(C)C)c2c1)c1cn(Cc2c(F)cccc2F)nn1 [Example 654, (S)-8-chloro-6-(((1-(2,6-difluorobenzyl)-1H-1,2,3-triazol-4-yl)(6-fluoro-2-methylpyridin-3-yl)methyl)amino)-4-(neopentylamino)quinoline-3-carbonitrile] | 36 nM | 3 nM | –
Cc1nc(F)ccc1[C@H](Nc1cc(C#N)c2ncc(C#N)c(NCC(C)(C)C)c2c1)c1nnn(C23CC(C2)C3)c1F [Example 954, (S)-6-(((1-(bicyclo[1.1.1]pentan-1-yl)-5-fluoro-1H-1,2,3-triazol-4-yl)(6-fluoro-2-methylpyridin-3-yl)methyl)amino)-4-(neopentylamino)quinoline-3,8-dicarbonitrile] | – | – | EC50 (TNFα; [3]): 16 nM; IC50 (Human Cot; [4]): 7 nM
CC(C)(C)CNc1c(C#N)cnc2c(C#N)cc(N[C@H](c3cn(C4(C(N)=O)CC4)nn3)c3cccc4ncsc34)cc12 [Example 409, (S)-1-(4-(benzo[d]thiazol-7-yl((3,8-dicyano-4-(neopentylamino)quinolin-6-yl)amino)methyl)-1H-1,2,3-triazol-1-yl)cyclopropane-1-carboxamide] | 559 nM | 1 nM | –
Cc1nc(F)ccc1[C@H](Nc1cc(Cl)c2ncc(C#N)c(NCC(C)(C)C)c2c1)c1cn(C2CC(F)(F)C2)nn1 [Example 645, (S)-8-chloro-6-(((1-(3,3-difluorocyclobutyl)-1H-1,2,3-triazol-4-yl)(6-fluoro-2-methylpyridin-3-yl)methyl)amino)-4-(neopentylamino)quinoline-3-carbonitrile] | 66 nM | 11 nM | –
CC(C)n1ccc2c([C@H](Nc3cc(Cl)c4ncc(C#N)c(NCC(C)(C)C)c4c3)c3cn(C45CC(C4)C5)nn3)cccc2c1=O [Example 772, (S)-6-(((1-(bicyclo[1.1.1]pentan-1-yl)-1H-1,2,3-triazol-4-yl)(2-isopropyl-1-oxo-1,2-dihydroisoquinolin-5-yl)methyl)amino)-8-chloro-4-(neopentylamino)quinoline-3-carbonitrile] | 33 nM | 2 nM | –
CC(C)(C)CNc1c(C#N)cnc2c(Cl)cc(N[C@H](c3cn(C4(CF)CC4)nn3)c3cccc4ccncc34)cc12 [Example 594, (S)-8-chloro-6-(((1-(1-(fluoromethyl)cyclopropyl)-1H-1,2,3-triazol-4-yl)(isoquinolin-8-yl)methyl)amino)-4-(neopentylamino)quinoline-3-carbonitrile] | 33 nM | 2 nM | –
Cn1nnc2cccc([C@H](Nc3cc(Cl)c4ncc(C#N)c(NCC(C)(C)C)c4c3)c3cn(C4(C(F)F)CC4)nn3)c21 [Example 542, (S)-8-chloro-6-(((1-(1-(difluoromethyl)-cyclopropyl)-1H-1,2,3-triazol-4-yl)(1-methyl-1H-benzo[d][1,2,3]triazol-7-yl)methyl)amino)-4-(neopentylamino)-quinoline-3-carbonitrile] | 40 nM | 2 nM | –
6-(((S)-(1-((1R,2R)-2- (difluoromethyl)cyclopropyl)- 1H-1,2,3-triazol-4-yl)(6-fluoro- 2-methylpyridin- 3-yl)methyl)amino)-4- [Example 834] | – | – | EC50 (TNFα; [1]): 68 nM; IC50 (Human Cot; [2]): 5 nM
CC(C)(C)CNc1c(C#N)cnc2c(C#N)cc(N[C@H](c3cn(C4(C(F)(F)F)CC4)nn3)c3cccc4c(=O)n(C(F)F)ccc34)cc12 [Example 889, (S)-6-(((2-(difluoromethyl)-1-oxo-1,2-dihydroisoquinolin-5-yl)(1-(1-(trifluoromethyl)cyclopropyl)-1H-1,2,3-triazol-4-yl)methyl)amino)-4-(neopentylamino)quinoline-3,8-dicarbonitrile] | – | – | EC50 (TNFα; [3]): 104 nM; IC50 (Human Cot; [4]): 9 nM
[2H][C@](Nc1cc(Cl)c2ncc(C#N)c(NCC(C)(C)C)c2c1)(c1ccc(F)nc1)c1cn(C2CC2)nn1 [Example 142, (S)-8-chloro-6-(((1-cyclopropyl-1H-1,2,3-triazol-4-yl)(6-fluoropyridin-3-yl)methyl-d)amino)-4-(neopentylamino)quinoline-3-carbonitrile] | 66 nM | 2 nM | –
CCN1CCC(n2cc([C@@H](Nc3cc(Cl)c4ncc(C#N)c(Nc5ccc(F)c(Cl)c5)c4c3)c3cc(Cl)cs3)nn2)CC1 [Example 381, (R)-8-chloro-4-((3-chloro-4-fluoro-phenyl)amino)-6-(((4-chlorothiophen-2-yl)(1-(1-ethylpiperidin-4-yl)-1H-1,2,3-triazol-4-yl)methyl)amino)-quinoline-3-carbonitrile] | 303 nM | 7 nM | –
Cc1nc(F)ccc1[C@H](Nc1cc(Cl)c2ncc(C#N)c(NCC(C)(C)C)c2c1)c1cn(C2(CF)CC2)nn1 [Example 495, (S)-8-chloro-6-(((6-fluoro-2-methylpyridin-3-yl)(1-(1-(fluoromethyl)cyclopropyl)-1H-1,2,3-triazol-4-yl)methyl)amino)-4-(neopentylamino)quinoline-3-carbonitrile] | 50 nM | 3 nM | –
Cc1ncsc1[C@H](Nc1cc(Cl)c2ncc(C#N)c(Nc3ccc(Cl)c(Cl)c3F)c2c1)c1c[nH]nn1 [Example 234, (R)-8-chloro-4-((3,4-dichloro-2-fluorophenyl)amino)-6-(((4-methylthiazol-5-yl)(1H-1,2,3-triazol-4-yl)methyl)amino)quinoline-3-carbonitrile] | 504 nM | 21 nM | –
CC(C)(C)CNc1c(C#N)cnc2c(C#N)cc(N[C@H](c3cn(C4(C(F)(F)F)CC4)nn3)c3ccc(C#N)c4cnccc34)cc12 [Example 670, (S)-6-(((8-cyanoisoquinolin-5-yl)(1-(1-(trifluoromethyl)cyclopropyl)-1H-1,2,3-triazol-4-yl)methyl)amino)-4-(neopentylamino)quinoline-3,8-dicarbonitrile] | 102 nM | 5 nM | –
CC(C)(C)CNc1c(C#N)cnc2c(Cl)cc(N[C@H](c3cn(C4(C(F)F)CC4)nn3)c3cccc4ncccc34)cc12 [Example 508, (S)-8-chloro-6-(((1-(1-(difluoromethyl)-cyclopropyl)-1H-1,2,3-triazol-4-yl)(quinolin-5-yl)methyl)amino)-4-(neopentylamino)-quinoline-3-carbonitrile] | 96 nM | 4 nM | –
CCN1Cc2cccc([C@H](Nc3cc(Cl)c4ncc(C#N)c(Nc5ccc(F)c(Cl)c5)c4c3)c3c[nH]nn3)c2C1 [Example 54, (S)-8-chloro-4-((3-chloro-4-fluorophenyl)amino)-6-(((2-ethylisoindolin-4-yl)(1H-1,2,3-triazol-4-yl)methyl)amino)quinoline-3-carbonitrile] | 652 nM | 11 nM | –
Cc1nc(F)ccc1[C@H](Nc1cc(Cl)c2ncc(C#N)c(NCC(C)(C)CCl)c2c1)c1cn(C2(C(F)(F)F)CC2)nn1 [Example 635, (S)-8-chloro-4-((3-chloro-2,2-dimethylpropyl)amino)-6-(((6-fluoro-2-methylpyridin-3-yl)(1-(1-(trifluoromethyl)cyclopropyl)-1H-1,2,3-triazol-4-yl)methyl)amino)quinoline-3-carbonitrile] | 60 nM | 3 nM | –
CN1Cc2cccc([C@H](Nc3cc(Cl)c4ncc(C#N)c(NCC(C)(C)C)c4c3)c3cn(C4(C(F)F)CC4)nn3)c2C1=O [Example 498, (S)-8-chloro-6-(((1-(1-(difluoromethyl)-cyclopropyl)-1H-1,2,3-triazol-4-yl)(2-methyl-3-oxoisoindolin-4-yl)methyl)-amino)-4-(neopentylamino)quinoline-3-carbonitrile] | 689 nM | 19 nM | –
[2H][C@](Nc1cc(Cl)c2ncc(C#N)c(N[C@@H](CC#N)c3ccccc3)c2c1)(c1ccc(F)nc1)c1cn(C2CC2)nn1 [Example 128, 8-chloro-4-(((S)-2-cyano-1-phenylethyl)amino)-6-(((S)-(1-cyclopropyl-1H-1,2,3-triazol-4-yl)(6-fluoropyridin-3-yl)methyl-d)amino)quinoline-3-carbonitrile] | > 10000 nM | 698 nM | –
